Results on five compounds are retold here after patent publication EP3443956A1, “A COMPOUND INCREASING ENDOCANNABINOIDS CONCENTRATION IN A SUBJECT FOR USE FOR PREVENTING AND/OR TREATING A SOCIAL BEHAVIOR DISORDER” (INSTITUT NATIONAL DE LA SANTE ET DE LA RECHERCHE MEDICALE …, priority 2017, dated 2019).

Series [1] concerns eCB-LTD of excitatory synapses onto layer 5 mPFC pyramidal neurons. Kind of series: Field potential recordings of eCB-LTD in mPFC slices. Details: species or system rat. How it is done:
(§1) Treatment was performed daily with the CB1 R receptor agonist WIN55,212-2 (0.5 mg/kg) or Delta9-Tetrahydrocannabinol (THC, 5 mg/kg) or their respective vehicles from GD 5 to GD 20. WIN55,212-2 was suspended in 5% DMSO, 5% cremophor and saline, and injected s.c. at a volume of 1 ml/kg. Control dams (Sham group) received a similar volume injection of vehicle solution. THC was suspended in 5% Ethanol, 5% cremophor and saline, and injected s.c. at a volume of 1 ml/kg.
(§2) Pups were weaned at 21 days of age. For behavioral and electrophysiological experiments male and female rats were tested at adulthood (postnatal day 90-120).
Adult male and female rats were anesthetized with isoflurane and killed as previously described (Martin and Manzoni, 2014). The brain was sliced (300 µm) in the coronal plane with a vibratome (Integraslice, Campden Instruments) in a sucrose-based solution at 4°C (in mm as follows: 87 NaCl, 75 sucrose, 25 glucose, 2.5 KCI, 4 MgCl2, 0.5 CaCl2, 23 NaHCO3 and 1.25 NaH2PO4). Immediately after cutting, slices containing the medial prefrontal cortex (PFC) or accumbens were stored for 1 h at 32°C in a low calcium ACSF that contained (in mm) as follows: 130 NaCl, 11 glucose, 2.5 KCI, 2.4 MgCl2, 1.2 CaCl2, 23 NaHCO3, 1.2 NaH2PO4, and were equilibrated with 95% 02/5% CO2 and then at room temperature until the time of recording.
Field potential recordings were made in coronal slices containing the mPFC or the accumbens as previously described (Robbe et al., 2002). During the recording, slices were placed in the recording chamber and superfused at 2 ml/min with either low Ca2+ ACSF for mPFC or normal ACSF for the accumbens. All experiments were done at 32°C or room temperature for mPFC and accumbens, respectively. The superfusion medium contained picrotoxin (100 µM) to block GABA Type A (GABA-A) receptors. All drugs were added at the final concentration to the superfusion medium.
For extracellular field experiments, the recording pipette was filled with ACSF.
Both fEPSP area and amplitude were analyzed. Stimulation was performed with a glass electrode filled with ACSF and the stimulus intensity was adjusted ∼60% of maximal intensity after performing an input-output curve (baseline EPSC amplitudes ranged between 50 and 150 pA). Stimulation frequency was set at 0.1 Hz.
The magnitude of plasticity was calculated 38-40 min after induction as percentage of baseline responses. Statistical analysis of data was performed with Prism (GraphPad Software) using tests indicated in the main text after outlier subtraction. All values are given as mean ± SEM, and statistical significance was set at p < 0.05.

For series [2], the system named is adult rats. The format is in vivo, rat. How it is done: Wistar female rats (Charles River, France) weighing 250-280 g were housed at constant room temperature (20 ± 1°C) and humidity (60%), and exposed to a light cycle of 12 h/day (08:00 a.m. to 08:00 p.m.), with food and water available ad libitum. For mating, pairs of females were placed with single male rats in the late afternoon. Vaginal smears were taken the following morning at 09:00 a.m. The day on which sperm was present was designated as the day 0 of gestation (GD 0).
as §1, §2
The test was performed in a sound attenuated chamber under dim light conditions. The testing arena consisted of a Plexiglas cage measuring 45 × 45 cm, with 2 cm of wood shavings covering the floor. Social behavior was assessed as previously described (Trezza et al., 2012).
Briefly, adult rats were individually habituated to the test cage for 5 min (adult rats) on each of the 2 days prior to testing. Before testing, adult animals were socially isolated for 24 h, respectively, to enhance their social motivation and thus facilitate the expression of social behaviors during testing. Drug treatments were counterbalanced so that cage mates were allocated to different treatment groups. […] Behavior was assessed per pair of animals and analyzed by a trained observer who was unaware of treatment condition using the Ethovision XT video tracking software (Noldus, Wageningen, The Netherlands).
The test consisted of placing two similarly treated animals into the test cage for 10 min (adult rats). In rats, a bout of social play behavior starts with one rat soliciting ('pouncing') another animal, by attempting to nose or rub the nape of its neck. The animal that is pounced upon can respond in different ways. If the animal that is pounced upon fully rotates to its dorsal surface, 'pinning' is the result, i.e., one animal lying with its dorsal surface on the floor with the other animal standing over it. From this position, the supine animal can initiate another play bout, by trying to gain access to the other animal's neck. Thus, during social play, pouncing is considered an index of play solicitation, while pinning can be regarded as the terminal component of a single play bout as well as a releaser of a prolonged play bout. Pinning and pouncing frequencies can be easily quantified and they are considered to be the most characteristic parameters of social play behavior in rats. During the social encounter, animals may also display social behaviors not directly associated with play, such as sniffing or grooming the partner's body. A pair of rats was considered as one experimental unit. […]

Series [3] has as its system eCB-LTD of excitatory synapses onto medium spiny neurons (MSNs). Kind of series: Field potential recordings of eCB-LTD in accumbens slices.
[4] abbreviates: Sham adult female rats, capsazepine 5 mg/Kg i.p., 30 min before testing.

Where two headings read alike, the source gives them in different places.

As for `N#Cc1cc2[nH]c(=O)c(=O)[nH]c2cc1[N+](=O)[O-]` [CNQX], the “effect on the field EPSP (fEPSP)” value in series [1] (CNQX 20 µM at the end of the experiments, data not shown) was “specifically blocked the synaptic component without altering the nonsynaptic component”.

For `Cc1c(C(=O)NN2CCCCC2)nn(-c2ccc(Cl)cc2Cl)c1-c1ccc(Cl)cc1` [SR141716, 5-(4-chloro-phenyl)-1-(2,4-dichlorophenyl)-4-methyl-N-1-piperidinyl-1H-pyrazole-3-carboxamide], the “effect on the curating actions of URB597 on social interaction” value in series [2] (adult male rats exposed in utero to WIN55,212-2, SR141716 1 mg/kg i.p. 30 min before URB597 0.1 mg/Kg i.p.) is given as “prevented the curating actions of URB597”. The “effect of the antagonist by itself on social interaction” value in series [2] (adult rats, SR141716 1 mg/kg i.p.) is “did not induce effects by itself”. Also, in series [1] (Sham adult male rats, slices preincubated for 45 min in 5 µM SR141716), the “effect on LTD in mPFC” value is recorded as “completely blocked LTD”. Besides, the “effect on LTD of evoked EPSPs in mPFC” value in series [1] (adult females exposed in utero to WIN55,212-2, slices preincubated for 45 min in 5 µM SR141716) is on record as “not mediated by CB1 R receptors”. Also, in series [1] (adult male rats exposed in utero to WIN55,212-2, URB597 2 µM plus SR141716 5 µM), the “block of the URB597 rescue of eCB-LTD” value was “blocked the URB597 rescue”.

On to `NC(=O)c1cccc(-c2cccc(OC(=O)NC3CCCCC3)c2)c1` [URB597, (3'-(aminocarbonyl)[1,1'-biphenyl]-3-yl)-cyclohexylcarbamate], for which, in series [2] (adult male rats exposed in utero to WIN55,212-2, URB597 0.1 mg/kg i.p., 2 h before testing), the “social interaction (social deficits)” value is on record as “ameliorated social deficits”. The “restoration of eCB-LTD in the PFC” value in series [1] (adult male rats exposed in utero to WIN55,212-2, slices incubated with URB597 2 µM for 45-90 min before LTD induction) is “sufficient to restore eCB-LTD”.

Take `Cc1c(C(=O)c2cccc3ccccc23)c2cccc3c2n1[C@H](CN1CCOCC1)CO3` [WIN55,212-2]: in series [3], the eCB-LTD in accumbens result is listed as “robust eCB-LTD”. For the same compound, the “distance travelled during the test” value in series [2] (rat, in vivo) worked out at 3779 ± 228.8 cm. In series [2] (rat, in vivo, sc), the “contact with congeners (total frequency of social interaction)” value is on record as “had less contact with their congeners”, the “time in social interactions” value was “spent less time in social interactions”, the “total frequency of social interaction” value is given as “no difference” and the “total time of social interaction” value was “no difference”.

As for `Oc1cc2c(cc1O)CN(C(=S)NCCc1ccc(Cl)cc1)CCC2` [capsazepine, N-[2-(4-Chlorophenyl)ethyl]-1,3,4,5-tetrahydro-7,8-dihydroxy-2H-2-benzazepine-2-carbothioamide], in series [2] (setting [4]), the “frequency of social interaction” value is recorded as “reduced” and the “total time of social interaction” value is given as “reduced”. For the same compound, the “effect on the curating effects of URB597 on social interaction” value in series [2] (adult rats exposed in utero to WIN55,212-2, capsazepine with URB597 0.1 mg/kg i.p.) is listed as “did not block the curating effects of URB597”. Further, in series [1] (Sham adult female rats, slices preincubated for 45 min in 10 µM capsazepine), the “effect on LTD in mPFC” value is “completely blocked LTD”.
